In ChEMBL document CHEMBL1201862, “PubChem BioAssay data set” (2004) one finds IC50, AC50 and EC50 data, which are given here for four compounds.

The structures appear in SMILES notation. Activity calls are given as the source filed them.

Common to all, as to type: functional
In test [1] the target is T1, Caspase-3 (Homo sapiens, UniProt P42574).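 Also: Dose-response selectivity test against caspase-3 for candidate inhibitors of sentrin-specific proteases (SENPs).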
T1 sequence (P42574 whole entry): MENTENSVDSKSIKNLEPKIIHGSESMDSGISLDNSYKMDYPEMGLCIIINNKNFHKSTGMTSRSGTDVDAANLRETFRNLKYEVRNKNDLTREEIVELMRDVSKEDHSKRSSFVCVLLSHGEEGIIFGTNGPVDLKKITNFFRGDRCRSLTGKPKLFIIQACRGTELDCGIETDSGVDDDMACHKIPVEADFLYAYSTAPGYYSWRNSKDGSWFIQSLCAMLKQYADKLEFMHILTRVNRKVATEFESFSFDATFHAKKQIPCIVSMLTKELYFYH

Test [2] concerns the target T2, Sentrin-specific protease 8 (Homo sapiens, UniProt Q96LD8).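 Also: luminescence read-out of SENP8 inhibition, dose-response confirmation following an ultra-high-throughput screen.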
T2 sequence (Q96LD8 whole entry): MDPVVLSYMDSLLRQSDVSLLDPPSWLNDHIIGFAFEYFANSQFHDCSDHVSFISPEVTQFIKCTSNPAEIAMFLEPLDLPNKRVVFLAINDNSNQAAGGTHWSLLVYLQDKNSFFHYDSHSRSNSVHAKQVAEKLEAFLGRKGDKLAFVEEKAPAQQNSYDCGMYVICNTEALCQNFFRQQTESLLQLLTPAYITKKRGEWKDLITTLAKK

For test [3], the target named is T3, Replicative DNA helicase DnaB (Mycobacterium tuberculosis, UniProt P9WMR3).
T3 sequence (P9WMR3 whole entry): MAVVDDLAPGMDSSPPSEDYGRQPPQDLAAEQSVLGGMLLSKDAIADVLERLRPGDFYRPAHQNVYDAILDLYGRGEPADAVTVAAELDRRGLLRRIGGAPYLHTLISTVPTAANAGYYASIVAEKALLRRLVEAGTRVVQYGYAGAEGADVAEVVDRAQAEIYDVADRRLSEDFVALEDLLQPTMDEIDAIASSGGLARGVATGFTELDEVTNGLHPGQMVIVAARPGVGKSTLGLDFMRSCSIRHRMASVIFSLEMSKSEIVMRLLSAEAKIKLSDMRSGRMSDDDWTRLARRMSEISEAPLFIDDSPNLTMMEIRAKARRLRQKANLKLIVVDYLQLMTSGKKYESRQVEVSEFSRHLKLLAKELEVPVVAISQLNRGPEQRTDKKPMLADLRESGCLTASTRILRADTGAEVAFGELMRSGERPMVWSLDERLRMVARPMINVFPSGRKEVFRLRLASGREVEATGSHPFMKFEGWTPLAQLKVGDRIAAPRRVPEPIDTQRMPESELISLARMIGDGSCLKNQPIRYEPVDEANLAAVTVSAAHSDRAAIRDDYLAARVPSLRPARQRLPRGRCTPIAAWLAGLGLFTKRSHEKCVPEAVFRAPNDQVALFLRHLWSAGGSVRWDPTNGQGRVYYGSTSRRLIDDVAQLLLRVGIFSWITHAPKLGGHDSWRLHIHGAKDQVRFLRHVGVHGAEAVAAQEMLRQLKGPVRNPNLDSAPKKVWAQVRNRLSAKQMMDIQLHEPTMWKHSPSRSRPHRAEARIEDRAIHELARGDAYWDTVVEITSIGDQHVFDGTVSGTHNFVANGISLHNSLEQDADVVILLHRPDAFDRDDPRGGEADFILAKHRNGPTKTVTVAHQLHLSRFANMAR
In words: DnaB intein splicing inhibitors, dose response, biochemical, cell-free fluorescence (AID 449749).

The target of test [4] is T4, Protein RecA (Mycobacterium tuberculosis, UniProt P9WHJ3).
T4 sequence (P9WHJ3 whole entry): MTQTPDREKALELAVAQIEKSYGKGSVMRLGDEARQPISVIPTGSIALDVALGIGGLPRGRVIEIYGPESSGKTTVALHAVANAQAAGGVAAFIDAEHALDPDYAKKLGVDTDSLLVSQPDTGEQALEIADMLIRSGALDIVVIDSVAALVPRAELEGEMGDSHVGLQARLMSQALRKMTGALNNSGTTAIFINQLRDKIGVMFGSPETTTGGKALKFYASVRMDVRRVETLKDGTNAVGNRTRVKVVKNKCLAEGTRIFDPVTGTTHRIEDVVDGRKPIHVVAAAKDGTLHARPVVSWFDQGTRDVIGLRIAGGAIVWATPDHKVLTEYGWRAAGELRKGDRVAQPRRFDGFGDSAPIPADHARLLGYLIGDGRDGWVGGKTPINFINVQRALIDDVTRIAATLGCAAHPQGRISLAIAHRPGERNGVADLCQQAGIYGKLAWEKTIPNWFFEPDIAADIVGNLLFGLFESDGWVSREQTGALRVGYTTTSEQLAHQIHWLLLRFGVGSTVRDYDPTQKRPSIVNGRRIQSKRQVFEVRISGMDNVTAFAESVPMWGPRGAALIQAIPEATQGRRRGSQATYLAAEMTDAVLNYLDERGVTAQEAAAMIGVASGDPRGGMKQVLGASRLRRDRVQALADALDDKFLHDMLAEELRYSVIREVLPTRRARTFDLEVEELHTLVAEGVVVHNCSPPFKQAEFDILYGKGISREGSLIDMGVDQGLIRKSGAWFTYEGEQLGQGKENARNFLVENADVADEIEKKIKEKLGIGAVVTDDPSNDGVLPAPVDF
In words: Fluorescence Cell-Free Homogeneous Dose Retest to Identify Inhibitors of RecA-Intein Splicing Activity. [Related pubchem assays (depositor defined):AID2097, AID2223, AID489010, AID492950].

For orientation: IC50 means the concentration needed to halve the response being measured. For orientation: AC50 means the midpoint of the concentration-response curve, whichever way the signal moves. By EC50 is commonly meant the midpoint of the concentration-response curve.

For `COc1ccc(NC(=S)Nc2ccc3nsnc3c2)cc1`, the figures for the IC50 in test [1] and in test [2] were 7.54 µM (active) and 2.74 µM (active), respectively. Besides, in test [3], the AC50 is > 120 µM (inactive). The EC50 in test [4] is 17.5 µM (active).
For `CC(C)(C)c1cc[n+](C2=C([N-]S(=O)(=O)c3ccccc3)C(=O)c3ccccc3C2=O)cc1`, the 50% inhibitory concentration (IC50) in test [1] is 76.7 µM (active); in test [2], 13.6 µM (active). In addition, the AC50 in test [3] is 9.28 µM (active). Besides, the EC50 in test [4] was 9.39 µM (active).
For `O=C1C(=O)c2ccccc2C(O)=C1CCCCl`, in that order: 37.8 µM (active), 14.4 µM (active), 6.36 µM (active) and 6.39 µM (active).
The matching figures for `O=C1C=C(Nc2ccccc2C(=O)O)c2ccccc2C1=O`: 4.8 µM (active), 3.3 µM (active), 2.21 µM (active) and 2.34 µM (active).
